From patent US9833454B2, “Difluoromethoxy compound with low bioactivation potential for the reduction of beta-amyloid production” (BRISTOL-MYERS SQUIBB COMPANY, priority 2014, dated 2017)
“And” between values parts separate entries of the source, which are not always exact repeats. Equal entries are not always repeated.

Target: CYP2D6 (Homo sapiens, UniProt P10635)
Assay: biochemical

Chain of CYP2D6 (P10635 whole entry): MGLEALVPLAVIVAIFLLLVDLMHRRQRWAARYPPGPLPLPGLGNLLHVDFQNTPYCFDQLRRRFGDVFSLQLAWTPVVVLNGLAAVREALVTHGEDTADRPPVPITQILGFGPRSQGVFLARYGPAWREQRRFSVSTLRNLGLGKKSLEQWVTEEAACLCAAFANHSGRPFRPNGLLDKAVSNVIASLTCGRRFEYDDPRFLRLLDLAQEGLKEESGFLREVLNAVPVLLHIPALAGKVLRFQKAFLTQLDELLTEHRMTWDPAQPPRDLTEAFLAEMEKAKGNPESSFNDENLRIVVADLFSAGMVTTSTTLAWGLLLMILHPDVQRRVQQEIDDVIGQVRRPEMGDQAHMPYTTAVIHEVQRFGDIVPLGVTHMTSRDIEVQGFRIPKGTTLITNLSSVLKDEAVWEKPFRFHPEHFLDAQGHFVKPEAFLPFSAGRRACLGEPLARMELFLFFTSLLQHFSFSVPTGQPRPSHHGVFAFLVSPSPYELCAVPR

IC50: 1320 nM and 440 nM
Structure (SMILES): COCC(=O)O[C@]1(CCN(C)CCCc2nc3ccccc3[nH]2)CCc2cc(F)ccc2[C@@H]1C(C)C [Mibefradil, reference compound]
